# Patent US20080063643A1, “Peptide Derived From Hepatitis C Virus” (priority 2003, published 2008)
# What was measured:
# [1] = system: peptide-reactive IgG; test: ELISA of anti-C-35 and anti-NS5A-2132 IgG in sera: cross reactivity, HLA and genotype restriction (Example 3); format: binding, human
# From the text: Two peptides with a purity of 90% or more were purchased from BIOSYNTHESIS (Lewisville, Tex.): HCV-1b core protein 35-44 ([…] (SEQ ID NO: 1) capable of inducing an HLA-A2-restricted CTL activity) and HCV-1b NS5A protein 2132-2140 ([…] (SEQ ID NO: 2) capable of inducing an HLA-A24-restricted CTL activity). As a negative control, peptides derived from HIV with an HLA-A2-binding motif ([…] (SEQ ID NO: 64)) and an HLA-A24-binding motif ([…] (SEQ ID NO: 63)) were used.
# The level of peptide-specific IgG was measured by an enzyme-linked immunosorbent assay (ELISA). Briefly, each peptide was dissolved in dimethyl sulfoxide (DMSO) and stored at −20° C. The peptide (20 μg/well) diluted with 0.1 M carbonate buffer containing disuccinimidyl suberate (DSS) (PIERCE, Rockford, Ill.) as a chemical crosslinker was bound to an ELISA plate. The wells were washed 3 times with 0.05% Tween 20/PBS (PBST). Then, the plate was blocked overnight at 4° C. with Block Ace (Yukijirushi, Tokyo, Japan). A serum sample was diluted 1:100, 1:200 or 1:400 with 0.05% Tween 20/Block Ace, and 100 μl/well of the sample was added to each well. After the sample was incubated at 37° C. for 2 hours, the plate was washed 9 times with PBST, and further incubated at 37° C. for 2 hours with 100 μl/well of a 1:1000 diluted rabbit anti-human IgG (γ-chain specific) (DAKO Glostrup, Denmark). After the plate was washed 9 times, 100 μl/well of a 1:100 diluted anti-rabbit IgG-conjugated horseradish peroxidase-dextran polymer (En Vision, DAKO) was added to each well, and then the plate was incubated at room temperature for 40 minutes. After the plate was washed, 100 μl/well of a tetramethylbenzidine substrate solution (KPL, Guildford, UK) was added, and the reaction was stopped by the addition of 1.0 M phosphoric acid.
# The cross reactivity of two antibodies reactive to the peptides derived from HCV-1b was examined. The sera obtained from 60 HCV patients and patients who are not included in the cohort study (CH, n=22, LC, n=21 and HCC, n=17) were examined for reactivity to the peptides of the core 35-44 (C-35) and NS5A 2132-2140 (NS5A-2132). The sera were also obtained from 24 subjects with an autoimmune disease, 17 cases of HBV infection and 10 cases of HTLV-1 infection. The sera obtained from 37 HDs were used as a negative control. The level of peptide-reactive IgG contained in the serially diluted serum samples was measured by ELISA. The results are reported by the absorbance (OD) of each sample. The representative results of OD at a serum dilution of 100:1 are shown. The cut-off value was set at 0.093 (mean+2 SD of OD from HDs). The statistical analysis was carried out using the χ^2-test. Values of P<0.05 were considered statistically significant.
# Then, the correlation between the HLA-class IA phenotype and the level of anti-C-35 IgG or anti-NS5A-2132 IgG was examined in 29 patients with a disease associated with HCV. The HLA-class IA phenotype was determined by a standard serological method. Nine patients were HLA-A2^+, 13 patients were A24^+, and the remaining 7 patients were A2^−-A24^−. The levels of Anti-C-35 and anti-NS5A-2132 were measured by a standard ELISA and the OD value of each patient at a serum dilution of 100:1 is shown in the figure.
# Also the correlation between the HCV genotype and the level of anti-C-35 IgG or anti-NS5A-2132 IgG was examined in a double blind study in patients infected with HCV-1b (n=29), HCV-2a (n=16) and HCV-2b (n=3). The HCV genotype was determined by directly sequencing HCV in the serum of the patient. The levels of anti-C-35 and anti-NS5A-2132 were measured by a standard ELISA and the OD value of each patient at a serum dilution of 100:1 is shown. The cut-off value was set at 0.093 (mean+2 SD of OD from HDs).
# Then, the sera of CH (n=24), LC (n=22), HCC (n=26) and HDs (n=9) were newly prepared and the level of anti-NS5A-2132 IgG was measured (FIG. 26). […]
# [2] = system: peptide-specific IgG; test: Absorption and elution of peptide-specific IgG (Example 1); format: binding, human; details: serum of the patient of FIG. 1
# Procedure: One hundred microliters of a plasma or serum sample diluted with 0.05% Tween 20/Block Ace (registered trademark) was added to each well and allowed to be absorbed to the peptide (20 μg/well) coated on the well of the plate at 37° C. for 2 hours. After this procedure was repeated 3 times, the peptide-specific IgG level in the supernatant was measured by ELISA. The antibody bound to the peptide-coated plate in the initial adsorption step was eluted with 30 μl/well of 5 M NaCl/50 mM citrate buffer (pH 3.0) (neutralized with 0.05% Tween 20/Block Ace containing 1.0 M Tris-HCl (pH 7.5)), and the peptide-specific IgG level in the eluted fraction was measured by ELISA.
# [3] = out of 60, cut-off 0.093 OD, serum dilution 100:1
sequence,measurement,setting,value
YLLPRRGPRL [No. 40],"IgG level among the 3 groups (CH, LC and HCC patients)",[1],no significant difference in the IgG level among the 3 groups
same,detection of the anti-peptide antibody by HLA-class IA phenotype,"[1]; 29 patients: HLA-A2+, A24+, A2-A24-",detected in the majority of the patients
same,positivity of sera from the other (not HCV) groups,"[1]; autoimmune disease, HBV, HTLV-1",not positive
same,number of HTLV-1+ subjects with a significant level of anti-peptide IgG,[1]; out of 10 cases,8
same,number of HCV-positive patients with a significant level of anti-peptide IgG,[1]; [3],56
same,percentage of HCV-positive patients with a significant level of anti-peptide IgG,[1]; [3],93.3%
same,number of patients with the anti-peptide antibody detected,"[1]; patients infected with HCV-1b, out of 30",26
same,number of patients with the anti-peptide antibody detected,"[1]; patients infected with HCV-2a, out of 15 (C-35) or 16 (NS5A-2132)",15
same,number of patients with the anti-peptide antibody detected,"[1]; patients infected with HCV-2b, out of 3",3
same,absorption of the antibody reactive to C-35 peptide by the peptide,[2],absorbed by C-35
same,elution of the antibody reactive to C-35 peptide,[2],eluted from the C-35-adsorbed fraction
